One data set deals with M^Pro. Particulars: cited from earlier work.
Data set [1] has as its target M^Pro-eGFP ectopically expressed in 293T cells (Severe acute respiratory syndrome coronavirus 2, UniProt P0DTD1). The data set can be described thus: cell-based. The class given is cell-based, SARS-CoV-2.
In a further data set the test system is SARS-CoV-2 Delta strain. The experiment in a line: Plaque reduction neutralization test in Vero E6 cells, Delta. The class given is cell-based. The following applies: PRNT, three days.
Data set [2] relates to SARS-CoV-2 USA-WA1/2020 strain. The experiment in a line: Plaque reduction neutralization test in Vero E6 cells, USA-WA1/2020. Particulars: PRNT, three days. The class given is cell-based. (In general: Plaques are areas of infected cells; plaque reduction assays count them against a control.)
A further data set relates to SARS-CoV-2 Beta strain. The experiment in a line: Plaque reduction neutralization test in Vero E6 cells, Beta. The data set is classed as cell-based. Particulars: PRNT, three days.
A further data set deals with SARS-CoV-2. Particulars: read-out: EC50 as SARS-CoV-2 inhibitor; cited from earlier work.
The conditions of data set [3]: rats, oral administration; cited from earlier work.

Like-named read-outs stand apart in the source and are kept apart here.

One may read the IC50 as the concentration needed to halve the response being measured. In the case of `CC(C)(C)NC(=O)N[C@H](C(=O)N1C[C@H]2[C@@H]([C@H]1C(=O)NC(CC1CCC1)C(=O)C(N)=O)C2(C)C)C(C)(C)C` (stereo partly shown) [Boceprevir], the IC50 was 8 µM in the data set with M^Pro (read-out: Enzymatic IC50, ref 15) and 4.2 ± 0.6 µM in the data set with M^Pro (read-out: Enzymatic IC50, ref 16).
Broadly, the EC50 is the midpoint of the concentration-response curve. As to `CC(C)[C@H](NC(=O)NC(C)(C)C)C(=O)N[C@@H](CC1CC1)C(=O)N[C@H](C=O)C[C@@H]1CCNC1=O` [MPI39], the EC50 in data set [1] was greater than 10 µM.
For the molecule `CC(C)(C)CC(=O)N[C@H](C(=O)N1C[C@H]2[C@@H]([C@H]1C(=O)N[C@H](C=O)C[C@@H]1CCNC1=O)C2(C)C)C(C)(C)C` [MPI40], the “Antiviral EC50” value (with SARS-CoV-2 Delta strain; in data set [2]; with SARS-CoV-2 Beta strain) was “no inhibition at all tested concentrations” throughout.
For `CC(C)(C)OC(=O)N[C@H](C(=O)N1C[C@H]2[C@@H]([C@H]1C(=O)N[C@H](C=O)C[C@@H]1CCNC1=O)C2(C)C)C(C)(C)C` [MPI43], the “in cellulo potency higher than MPI40” value in data set [1] is 20 fold.
What is called half-life is the time needed for the level to fall by half in the phase considered. For MPI8, the IC50 in the data set on M^Pro (read-out: IC50 (in vitro potency)) was roughly 0.1 µM. Besides, in the data set on SARS-CoV-2, the EC50 was 0.03 µM. Also, the half-life in data set [3] is on record as 1.22 h.

The values are drawn from paper PMC9264725 (European Journal of Medicinal Chemistry, 2022).
